Measurements: US10624895B2, “Methods of sensitizing a patient with glioma to a therapeutic agent by administering small hairpin RNA targeting PDZ-RHOGEF” (THE TRANSLATIONAL GENOMICS RESEARCH INSTITUTE, priority 2016, dated 2020)

What was measured:
Rac1 = Rac1 activation assay after PPF; type: cell-based, human; settings: T98G cells, 5 μM PPF 1 hour, then 10% FBS
Experimental: FIGS. 27A and 27B depict that PPF suppresses GBM cell invasion and Rac1 activation. FIG. 27A—T98G, GBM10, and GBM43 glioma cells were treated with 5 μM PPF and invasion was assayed over 24 hours utilizing a Matrigel® invasion assay, *p<0.05. FIG. 27B—T98G glioma cells were serum starved, pre-incubated with 5 μM PPF or vehicle for 1 hour, and then stimulated with 10% FBS for 2-10 mins. Cell lysates were harvested and equal concentrations of protein were assessed for Rac1 activation.
Referring now to FIGS. 27A and 27B: The inventors next examined whether PPF inhibited TROY dependent glioma cell invasion. […] Briefly, 5.0×10^5 cells glioma cells were seeded in 100-mm diameter culture dishes and incubated overnight at 37° C. Subsequently, cells were serum starved for 16 hours at 37° C. Cells were then harvested, re-suspended in growth factor reduced Matrigel® (Becton Dickinson) (1.0×10^5 cells/50 μL), added in triplicates to collagen-coated transwell chambers, and allowed to invade through Matrigel® in presence of 10% FBS and/or 5 μM PPF. After incubation for 24 hours at 37° C. non-invaded cells were scrapped off the upper side of the membrane and cells invaded to the other side of the membrane were fixed with 4% paraformaldehyde (PFA) (Affymetrix) and stained with DAPI (Invitrogen). Nuclei of invaded cells were counted in five high power fields (HPF) with a 20× objective.

[1] = tested on: T98G, GBM10, and GBM43 cells; assay: Lamellipodia formation and membrane ruffling (F-actin staining); type: cell-based, human; settings: 5 μM PPF 1 hour prior to 10% FBS for 5 min
Experimental: FIGS. 28A and 28B depict that PPF suppresses GBM cell membrane ruffling. FIG. 28A—GBM43 cells were preincubated with 5 μM PPF or vehicle for 1 hour prior to 10% FBS stimulation for 5 min. After FBS stimulation, cells were fixed, permeabilized, and stained for F-actin. For each experimental condition, at least 12 images were taken randomly. Arrowhead indicates membrane ruffles. FIG. 28B—Graph depicts the average lamellipodia in T98G, GBM10, and GBM43 cells in the presence or absence of 10% FBS with or without 5 μM PPF as indicated. Lamellipodia were traced using Image J software.
Referring now to FIGS. 28A and 28B: The inventors investigated lamellipodia formation and membrane ruffling. Briefly, glioma cells were plated onto 10-well glass slides pre-coated with 10 μg/ml laminin at the density of 3000 cells/well for 24 hours at 37° C. Subsequently, cells were serum starved for 16 hours. The cells were pre-incubated with 5 μM PPF or vehicle for 1 hour prior to 10% FBS stimulation for 5 min. After FBS stimulation, cells were fixed in 4% PFA, permeabilized with 0.1% Triton X-100, and incubated with Alexa Fluor® 555 Phalloidin (Invitrogen) to stain for F-actin. Slides were mounted with ProLong® reagent with DAPI and imaged using a Zeiss LSM 510 microscope. For each experimental condition, at least 12 images were randomly taken. Lamellipodia were traced using ImageJ software.

CCCn1cnc2c1c(=O)n(CCCCC(C)=O)c(=O)n2C [PPF, 3-methyl-1-(5-oxohexyl)-7-propyl-3,7-dihydro-1H-purine-2,6-dione]
Rac1 activation (Rac1): inhibited Rac1 activation | lamellipodia formation and membrane ruffling [1]: significantly decreased
